These results are taken from patent US8486464B2, “Herbal composition for angina pectoris, method to prepare same and uses thereof” (Tasly Pharmaceutical Group Co. Ltd., priority 2000, dated 2013).

Where two headings read alike, the source gives them in different places.

For series [1], the system named is coronary heart disease and angina. In words: Clinical summary: coronary heart disease and angina (Table 1-1). It is filed as in vivo, human. As to conditions: Affiliated Hospital Anhui College of TCM, 46 cases. On the procedure: After DSP came onto the market in China, a large-scale clinical research project was conducted in China. Although different prescriptions were used in different research projects, all conclusions are written according to “Method of DSP clinic study.” All clinical and experimental markers were standardized. A simplified summary of the results is shown below in Table 1-1.

The next series deals with non-symptomatic M-IR. As to the kind of experiment: Non-symptomatic M-IR, DSP vs Nifedipine. It is filed as in vivo, human. As to conditions: for Efficacy (Number) / Obvious Efficacy (Number): n = 52. The source says: 1. Clinical sample. 52 patients were in the treatment group, which included 39 patients with coronary heart disease, and 4 patients with M-IR, and 9 patients with positive results on the exercise test. There were 38 males and 14 females. 52 patients were in the control group, which included 43 patients with coronary heart disease, 6 patients with M-IR, and 3 patients with positive results on the exercise test. There were 34 males and 18 females (Both groups followed the WHO M-IR-Related Heart Disease and Standard established in 1979).
2. Method of treatment. DSP was given to the treatment group, 10 tablets/medication, 3 times/day. […] Both medications lasted for 4 weeks, and all medications related to the treatment of M-IR were stopped.
3. Result standard. Efficient: Change of ECG ST-T was close to normal; Better: Decreased section ST rose 0.5 mm or more, transverse wave T changed to vertical ones, inverted wave changed 25% or more, conducting resistance was improved; Failure: There was no difference in ECGs before and after treatment.

Series [2] relates to angina caused by coronary heart disease. In words: Senior group angina, DSP vs Nifedipine. On the procedure: • 1.1 Subjects. […] Medications were taken for 30 days. Patients in both groups used Yongbaoling spray under their tongues during acute onset of symptoms. […] Onset frequency, duration, number of times Yongbaoling was sprayed each day, 12-lead ECG, blood pressure, heartbeat, normal blood urea, liver and kidneys function, and lipoproteins in blood and blood viscosity both before and after treatment. • 1.4 Statistical analysis. The results were measured by t statistic testing, calculated by x^2 statistic testing. • 2. Confirmation of results. Onset frequency and duration with a decrease of 80% or more was regarded as obvious efficacy. A decrease of 50% or more was regarded as efficacy. A decrease of 50% or less was regarded as a failure. Changes in NST and ΣST before and after treatment were used to observe ECG improvement. NST represented the low-pressure 12-lead numbers in section ST; ΣST represented the sum of all low pressure numbers in section ST of 12-lead. Results

The test system of a further series is cardiac arrhythmia. In words: Cardiac arrhythmia caused by exogenous free radicals, Langendorff rat heart. On the set-up: species or system Wistar rat. As to conditions: 1 mg/L verapamil; 50 mg/L DSP; free radicals alone 100%. On the procedure:
Langendorff perfusion device was used to pour ferrous sulfate (0.25 mmol/L)/citrate (1.0 mmol/L) into the Wistar rat's artificial heart. The model of free radicals causing heart rhythm irregularity was replicated to observe the effects of DSP.
(1) Blank group (Normal control). Reperfused with perfusion solution for 45 mins continuously. The change in electrocardiographic pattern was observed.
(2) SP group. DSP was added in 50 mg/L of perfusion solution and perfused for 45 mins continuously. The change in electrocardiographic pattern was observed.
(3) Free-radical-damaging group (Free radicals). After pre-perfusing the artificial heart for 15 mins, it was reperfused with perfusion solution containing ferrous sulfate (0.25 mmol/L)/citrate (1.0 mmol/L) for 30 mins continuously. The change in electrocardiographic pattern was observed.
(4) DSP-protected group (DSP+free radicals): DSP was added into 50 mg/L of perfusion solution and pre-perfused for 15 mins. Ferrous sulfate (0.25 mmol/L/citrate (1.0 mmol/L) was added to the perfusion solution and then infuse for 30 mins continuously. The change in electrocardiographic pattern was observed.
(5) Verapamil-protected group (verapamil+free radicals). […] of verapamil was added to the perfusion solution and preperfused for 15 mins. […]

The next series has as its system arterial IMT. As to the kind of experiment: Hyperlipidemia, DSP vs aspirin: arterial IMT. It counts as in vivo, human. On the procedure: (§1) 1.1 Sample. 53 patients were divided into 2 groups, at random: 25 patients in Treatment group (DSP group), and 28 patients in Control group (aspirin group).
(§2) The medication lasted for 6 months. 50 mg enteric aspirin was given to the Control group, 1 time/day orally.
(§3) 1.3 Standard. a) Measurement of IMT (Arterial tunica intima-tunica media). The horizontal and vertical transactions of the whole-length aorta, carotis communis, exterior artery, and subclavial artery were checked 1, 2, 3, and 6 months after treatment. The thickest part of the IMT was measured and recorded. b) Blood flow included whole blood high-viscosity (hHb), whole blood low-viscosity (hLb), plasma viscosity (hP), Aggregation Index of Red blood cells (AIR) etc. c) Measurement of blood lipoprotein included Total blood Cholesterol (TC) and Triglycerides (TG). D) Statistical treatment by matching t statistic testing.

A further series relates to thrombosis. In words: Experimental thrombosis in rats (Umetsu method). It is filed as in vivo. As to conditions: experimental thrombo-formation. The text has this: • 3. Effects on experimental thrombosis in rats. The Umetsu method is used to carry out the experiment.
The subject of the next series is blood viscosity. In words: Hyperlipidemia, DSP vs aspirin: blood flow. It counts as in vivo, human. On the procedure: as §1, §2, §3
Another series has as its system blood stasis. As to the kind of experiment: Blood flow (Hb, Lb, P, air flow), DSP vs aspirin. It is filed as in vivo, human. More on the design: unit not given here. The source says:
Hemorrhage at the atherosclerotic lesions induces platelet activation, coronary thrombosis and blood stasis resulting in impaired blood flow. Thus to improve blood flow, chronic administration of the platelet-activation inhibitor aspirin is recommended for patients with angina. The efficacy of DSP and aspirin improving blood flow was compared by evaluating [Hb, Lb, P and air flow]. DSP improves blood flow as efficiently as aspirin. […].

The mark [3] stands for this setting: clinical results after 30 days, cases (%).

Description for insulin: (§4) Method. The 80 patients were divided into 2 groups: the Control group, with normal treatment, and the DSP group, with 10 DSP tablets, 3 times/day. Testing lasted 4 weeks.
Description for plasma ET: as §4

Turning to `COC(=O)C1=C(C)NC(C)=C(C(=O)OC)C1c1ccccc1[N+](=O)[O-]` [Nifedipine], in series [1], the Clinical efficacy % entry was “Nifedipine(32; 75%;” and the ECG-Efficacy % was determined as 43.8%). Also, in the series with non-symptomatic M-IR (1st week), the “Efficacy (%)” value stood at 25.0%, the “Efficacy (Number)” value is 5 and the “Obvious Efficacy (Number)” value is 8. Further, in the series with non-symptomatic M-IR (2nd week), the “Efficacy (%)” value came to 30.8%, the “Efficacy (Number)” value is 6 and the “Obvious Efficacy (Number)” value was 10. In the series on non-symptomatic M-IR (3rd week), the “Efficacy (%)” value stood at 34.6%, the “Efficacy (Number)” value was 7 and the “Obvious Efficacy (Number)” value was 11. In the series on non-symptomatic M-IR (4th week), the “Efficacy (%)” value stood at 38.5%, the “Efficacy (Number)” value amounted to 8 and the “Obvious Efficacy (Number)” value turned out to be 12. Further, in [2] (20 patients, 30 days), the “Side-effects: felt pain” value was 3 patients, the “Side-effects: slow heartbeat” value was 1 patients and the “Side-effects: swollen ankles” value is 2 patients. In series [2] (after treatment), the NST came out at 3.90 ± 1.13 and the “Number of Yongbaoling sprays per day” value is 2.2 ± 0.8. Besides, in series [2] (before treatment), the NST came to 4.20 ± 1.25 and the “Number of Yongbaoling sprays per day” value is 3.21 ± 1.1. Further, in series [2] (clinical results after 30 days), the “Total efficacy, %” value is recorded as 60%. Moreover, in [2] (setting [3]), the Efficacy is 4 (20.00) %, the Failure is recorded as 8 (40.00) % and the “Obvious Efficacy” value was 8 (40.00) %.
`COc1ccc(CCN(C)CCCC(C#N)(c2ccc(OC)c(OC)c2)C(C)C)cc1OC` (stereo not drawn) [verapamil]: the “cardiac arrhythmia (irregularity) percentage” value in the series on cardiac arrhythmia worked out at 71.4%.
`CC(=O)Oc1ccccc1C(=O)O` [aspirin] showed an IMT in the series with arterial IMT (after treatment (6 months)) of 2.1 ± 0.7 mm. Moreover, in the series with arterial IMT (before treatment), the IMT stood at 2.0 ± 0.8 mm. The Average aggregation percentage in the series on thrombosis (Aspirin 30, DSP 50) came to 10.6 ± 2.1. This molecule also returned an Inhibition % in the series with thrombosis (Aspirin 30, DSP 50 (head: g/kg)) of 49.2%. For the same molecule, in the series with blood viscosity (after treatment (6 months)), the AIR amounted to 1.40 ± 0.10, the “η Hb” value is 4.28 ± 1.07 mpa · s, the “η Lb” value was 8.21 ± 1.03 mpa · s and the “η P” value turned out to be 1.67 ± 0.07 mpa · s. In the series on blood viscosity (before treatment), the AIR is listed as 1.82 ± 0.17, the “η Hb” value is listed as 6.12 ± 1.56 mpa · s, the “η Lb” value stood at 10.38 ± 1.96 mpa · s and the “η P” value was determined as 1.89 ± 0.12 mpa · s. In the series with blood stasis (Post-), this molecule showed an Air flow of 1.40 ± 0.10, a Hb of 4.28 ± 1.07, an LB of 8.21 ± 0.3 and a P of 1.67 ± 0.7. Besides, in the series on blood stasis (Pre-), the Air flow was found to be 1.82 ± 0.17, the LB worked out at 10.38 ± 1.96 and the P stood at 1.89 ± 0.12. The molecule also yielded a Hb with blood stasis (Pre-, 25 patients DSP, 28 aspirin) of 6.12 ± 1.56.
In the case of `CCOC(=O)C1=C(COCCN)NC(C)=C(C(=O)OC)C1c1ccccc1Cl` (stereo not drawn) [Amlodipine], the Blood glucose with insulin (60 min, after treatment) stood at 9.76 ± 0.52 mmol; in the series on insulin (60 min, before treatment), 9.86 ± 0.65 mmol; in the series on insulin (120 min, after treatment), 8.01 ± 0.76 mmol; with insulin (120 min, before treatment), 7.69 ± 0.81 mmol; in the series with insulin (Empty, after treatment), 5.27 ± 0.59 mmol; in the series with insulin (Empty, before treatment), 5.19 ± 0.56 mmol. For the same molecule, the Blood insulin with insulin (60 min, after treatment) was found to be 121.65 ± 1.89 mU/L; with insulin (60 min, before treatment) it was 122.01 ± 1.91 mU/L; in the series on insulin (120 min, after treatment) it was 92.56 ± 1.66 mU/L; in the series on insulin (120 min, before treatment) it was 91.62 ± 1.96 mU/L; in the series with insulin (Empty, after treatment), 25.31 ± 1.73 mU/L; with insulin (Empty, before treatment) it was 25.34 ± 1.74 mU/L. For the same molecule, the “Plasma ET” value is on record as 42.6 ± 4.78 ng/L in the series on plasma ET (after treatment (4 weeks)) and 57.2 ± 7.31 ng/L with plasma ET (before treatment).
